Measurements as given in patent publication US9587239B2, “Methods of identifying and treating glioblastoma” (THE TRANSLATIONAL GENOMICS RESEARCH INSTITUTE, priority 2008, dated 2017).

Experiments:
[1] = system: SF767 cells; test: Alamar Blue cell viability assay, SF767; assay type: cell-based; settings: Homo sapiens, 48 hours
Experimental: (§1) The Alamar Blue assay was used to assess viability as described previously (See Reference 29, incorporated by reference in its entirety). Briefly, 4000 cells of each population were seeded in quadruplicate wells of 96-well plastic plates in 200 μl of culture medium supplemented with 10% fetal bovine serum. Cells were treated with various conditions and the assay was developed 48 hours later. Alamar Blue was then added to the cells in a volume of 20 μl (10% of total volume) per well and the plates were incubated for 6 hours at 37° C. The plates were read on a fluorescence plate reader (excitation, 560 nm; emission, 600 nm). Averages of the fluorescence values were calculated and normalized to controls without Temozolomide.

[2] = system: T98G cells; test: Alamar Blue cell viability assay, T98G; assay type: cell-based; settings: Homo sapiens, 48 hours
Experimental: as §1

Cn1nnc2c(C(N)=O)ncn2c1=O [Temozolomide]
IC50 [1]: 125 µM
IC50 [2]: 250 µM
